Data: patent US20130295055A1 (priority 2011, published 2013)
Read-outs that look alike come from different tables or passages of the source.

How the values were obtained:
Format in all cases: cell-based
Standard strain E. coli = assay: Sterilization effectiveness on E. coli (number of bacteria over time)
Standard strain Listeria = assay: Sterilization effectiveness on Listeria (number of bacteria over time)
[1] = tested on: Avian influenza virus AIV0028 (H9N2); conditions: Soft Water (Distilled Water)
[2] = tested on: Salmonella typhimurium ATCC 19585 and Salmonella typhimurium ATCC 43174; assay: Sterilization effectiveness on Salmonella (number of bacteria over time)
Procedure: Inhibitory effect was evaluated by measuring total numbers of bacteria over time, and the number of bacteria was expressed as log10 CFU/ml.
Standard strains Salmonella typhimurium ATCC 19585 and Salmonella typhimurium ATCC 43174 were purchased from American Type culture collection, and were incubated in Rappaport-Vassiliadis Soya Peptone Broth (CM0866, Oxoid, the United Kingdom) in a bacterial incubator at 37° C. for 24 hours. Total number of bacteria was measured by diluting strains at stationary phase to 6 to 7 log(cfu/mL).
0.2% peptone water was used as a diluent, and the smeared plate medium was incubated in a 37° C. bacterial incubator for 24 hours, and the number of white single colony was counted. Evaluation was carried out with the average of triplicate.
Malic acid was added to be 0.5%, 1.0%, 2.0%, respectively, to the prepared single colony of Salmonella, and the inhibitory effect on Salmonella over time was examined.

O=C(O)CC(O)(CC(=O)O)C(=O)O [SAL + BROTH (CA 2.0%), citric acid]
number of E. coli bacteria (Standard strain E. coli; 0 min): 8.72 log10 CFU/ml | number of E. coli bacteria (Standard strain E. coli; 10 min, listed as EC + Broth (CA 2.0%)): 8.71 log10 CFU/ml | number of E. coli bacteria (Standard strain E. coli; 20 min, listed as EC + Broth (CA 2.0%)): 8.67 log10 CFU/ml | number of E. coli bacteria (Standard strain E. coli; 30 min, listed as EC + Broth (CA 2.0%)): 8.65 log10 CFU/ml | number of E. coli bacteria (Standard strain E. coli; 60 min, listed as EC + Broth (CA 2.0%)): 8.61 log10 CFU/ml | number of Listeria bacteria (Standard strain Listeria; 0 min): 8.62 log10 CFU/ml | number of Listeria bacteria (Standard strain Listeria; 10 min, listed as LIS + BROTH (CA 2.0%)): 8.37 log10 CFU/ml | number of Listeria bacteria (Standard strain Listeria; 20 min, listed as LIS + BROTH (CA 2.0%)): 8.37 log10 CFU/ml | number of Listeria bacteria (Standard strain Listeria; 30 min, listed as LIS + BROTH (CA 2.0%)): 8.38 log10 CFU/ml | number of Listeria bacteria (Standard strain Listeria; 60 min, listed as LIS + BROTH (CA 2.0%)): 8.40 log10 CFU/ml

O=C(O)CC(O)(CC(=O)O)C(=O)O [SAL + BROTH (CA 0.5%), citric acid]
number of E. coli bacteria (Standard strain E. coli; 0 min): 8.72 log10 CFU/ml | number of E. coli bacteria (Standard strain E. coli; 10 min, listed as EC + Broth (CA 0.5%)): 8.70 log10 CFU/ml | number of E. coli bacteria (Standard strain E. coli; 20 min, listed as EC + Broth (CA 0.5%)): 8.64 log10 CFU/ml | number of E. coli bacteria (Standard strain E. coli; 30 min, listed as EC + Broth (CA 0.5%)): 8.66 log10 CFU/ml | number of E. coli bacteria (Standard strain E. coli; 60 min, listed as EC + Broth (CA 0.5%)): 8.67 log10 CFU/ml | number of Listeria bacteria (Standard strain Listeria; 0 min): 8.62 log10 CFU/ml | number of Listeria bacteria (Standard strain Listeria; 10 min, listed as LIS + BROTH (CA 0.5%)): 8.52 log10 CFU/ml | number of Listeria bacteria (Standard strain Listeria; 20 min, listed as LIS + BROTH (CA 0.5%)): 8.48 log10 CFU/ml | number of Listeria bacteria (Standard strain Listeria; 30 min, listed as LIS + BROTH (CA 0.5%)): 8.51 log10 CFU/ml | number of Listeria bacteria (Standard strain Listeria; 60 min, listed as LIS + BROTH (CA 0.5%)): 8.39 log10 CFU/ml

O=C(O)CC(O)(CC(=O)O)C(=O)O [Citric Acid, citric acid]
Avian Influenza Titer ([1]; Citric Acid Concentration 2%, Dilution Rate 1:12.5): 1.25 log 10 | Avian Influenza Titer ([1]; Citric Acid Concentration 2%, Dilution Rate 1:25): 2.00 log 10 | Avian Influenza Titer ([1]; Citric Acid Concentration 4%, Dilution Rate 1:50): 2.00 log 10 | Avian Influenza Titer ([1]; Citric Acid Concentration 6%, Dilution Rate 1:50): 2.00 log 10 | Avian Influenza Titer ([1]; Citric Acid Concentration 8%, Dilution Rate 1:50): 0.75 log 10

O=C(O)CC(O)C(=O)O (centres unmarked) [SAL + BROTH (MA 1.0%), malic acid]
number of Salmonella bacteria ([2]; 0 min): 9.02 log10 CFU/ml | number of Salmonella bacteria ([2]; 10 min): 9.03 log10 CFU/ml | number of Salmonella bacteria ([2]; 20 min): 9.04 log10 CFU/ml | number of Salmonella bacteria ([2]; 30 min): 9.04 log10 CFU/ml | number of Salmonella bacteria ([2]; 60 min): 8.88 log10 CFU/ml | number of E. coli bacteria (Standard strain E. coli; 0 min): 8.61 log10 CFU/ml | number of E. coli bacteria (Standard strain E. coli; 10 min, listed as EC + Broth (MA 1.0%)): 8.78 log10 CFU/ml | number of E. coli bacteria (Standard strain E. coli; 20 min, listed as EC + Broth (MA 1.0%)): 8.74 log10 CFU/ml | number of E. coli bacteria (Standard strain E. coli; 30 min, listed as EC + Broth (MA 1.0%)): 8.77 log10 CFU/ml | number of E. coli bacteria (Standard strain E. coli; 60 min, listed as EC + Broth (MA 1.0%)): 8.94 log10 CFU/ml | number of Listeria bacteria (Standard strain Listeria; 0 min): 8.67 log10 CFU/ml | number of Listeria bacteria (Standard strain Listeria; 10 min, listed as LIS + BROTH(MA 1.0%)): 8.69 log10 CFU/ml | number of Listeria bacteria (Standard strain Listeria; 20 min, listed as LIS + BROTH(MA 1.0%)): 8.60 log10 CFU/ml | number of Listeria bacteria (Standard strain Listeria; 30 min, listed as LIS + BROTH(MA 1.0%)): 8.60 log10 CFU/ml | number of Listeria bacteria (Standard strain Listeria; 60 min, listed as LIS + BROTH(MA 1.0%)): 8.59 log10 CFU/ml

O=C(O)CC(O)C(=O)O (centres unmarked) [SAL + BROTH (MA 2.0%), malic acid]
number of Salmonella bacteria ([2]; 0 min): 9.02 log10 CFU/ml | number of Salmonella bacteria ([2]; 10 min): 8.88 log10 CFU/ml | number of Salmonella bacteria ([2]; 20 min): 8.73 log10 CFU/ml | number of Salmonella bacteria ([2]; 30 min): 8.63 log10 CFU/ml | number of Salmonella bacteria ([2]; 60 min): 7.50 log10 CFU/ml | number of E. coli bacteria (Standard strain E. coli; 0 min): 8.61 log10 CFU/ml | number of E. coli bacteria (Standard strain E. coli; 10 min, listed as EC + Broth (MA 2.0%)): 8.69 log10 CFU/ml | number of E. coli bacteria (Standard strain E. coli; 20 min, listed as EC + Broth (MA 2.0%)): 8.68 log10 CFU/ml | number of E. coli bacteria (Standard strain E. coli; 30 min, listed as EC + Broth (MA 2.0%)): 8.79 log10 CFU/ml | number of E. coli bacteria (Standard strain E. coli; 60 min, listed as EC + Broth (MA 2.0%)): 8.63 log10 CFU/ml | number of Listeria bacteria (Standard strain Listeria; 0 min): 8.67 log10 CFU/ml | number of Listeria bacteria (Standard strain Listeria; 10 min, listed as LIS + BROTH(MA 2.0%)): 8.51 log10 CFU/ml | number of Listeria bacteria (Standard strain Listeria; 20 min, listed as LIS + BROTH(MA 2.0%)): 8.62 log10 CFU/ml | number of Listeria bacteria (Standard strain Listeria; 30 min, listed as LIS + BROTH(MA 2.0%)): 8.55 log10 CFU/ml | number of Listeria bacteria (Standard strain Listeria; 60 min, listed as LIS + BROTH(MA 2.0%)): 8.61 log10 CFU/ml

O=C(O)CC(O)C(=O)O (centres unmarked) [SAL + BROTH (MA 0.5%), malic acid]
number of Salmonella bacteria ([2]; 0 min): 9.02 log10 CFU/ml | number of Salmonella bacteria ([2]; 10 min): 9.04 log10 CFU/ml | number of Salmonella bacteria ([2]; 20 min): 9.05 log10 CFU/ml | number of Salmonella bacteria ([2]; 30 min): 9.04 log10 CFU/ml | number of Salmonella bacteria ([2]; 60 min): 9.09 log10 CFU/ml | number of E. coli bacteria (Standard strain E. coli; 0 min): 8.61 log10 CFU/ml | number of E. coli bacteria (Standard strain E. coli; 10 min, listed as EC + Broth (MA 0.5%)): 8.67 log10 CFU/ml | number of E. coli bacteria (Standard strain E. coli; 20 min, listed as EC + Broth (MA 0.5%)): 8.66 log10 CFU/ml | number of E. coli bacteria (Standard strain E. coli; 30 min, listed as EC + Broth (MA 0.5%)): 8.86 log10 CFU/ml | number of E. coli bacteria (Standard strain E. coli; 60 min, listed as EC + Broth (MA 0.5%)): 8.79 log10 CFU/ml | number of Listeria bacteria (Standard strain Listeria; 0 min): 8.67 log10 CFU/ml | number of Listeria bacteria (Standard strain Listeria; 10 min, listed as LIS + BROTH (MA 0.5%)): 8.55 log10 CFU/ml | number of Listeria bacteria (Standard strain Listeria; 20 min, listed as LIS + BROTH (MA 0.5%)): 8.61 log10 CFU/ml | number of Listeria bacteria (Standard strain Listeria; 30 min, listed as LIS + BROTH (MA 0.5%)): 8.56 log10 CFU/ml | number of Listeria bacteria (Standard strain Listeria; 60 min, listed as LIS + BROTH (MA 0.5%)): 8.58 log10 CFU/ml

O=C(O)CC(O)(CC(=O)O)C(=O)O [SAL + BROTH (CA 1.0%), citric acid]
number of E. coli bacteria (Standard strain E. coli; 0 min): 8.72 log10 CFU/ml | number of E. coli bacteria (Standard strain E. coli; 10 min, listed as EC + Broth (CA 1.0%)): 8.71 log10 CFU/ml | number of E. coli bacteria (Standard strain E. coli; 20 min, listed as EC + Broth (CA 1.0%)): 8.65 log10 CFU/ml | number of E. coli bacteria (Standard strain E. coli; 30 min, listed as EC + Broth (CA 1.0%)): 8.70 log10 CFU/ml | number of E. coli bacteria (Standard strain E. coli; 60 min, listed as EC + Broth (CA 1.0%)): 8.71 log10 CFU/ml | number of Listeria bacteria (Standard strain Listeria; 0 min): 8.62 log10 CFU/ml | number of Listeria bacteria (Standard strain Listeria; 10 min, listed as LIS + BROTH (CA 1.0%)): 8.47 log10 CFU/ml | number of Listeria bacteria (Standard strain Listeria; 20 min, listed as LIS + BROTH (CA 1.0%)): 8.48 log10 CFU/ml | number of Listeria bacteria (Standard strain Listeria; 30 min, listed as LIS + BROTH (CA 1.0%)): 8.41 log10 CFU/ml | number of Listeria bacteria (Standard strain Listeria; 60 min, listed as LIS + BROTH (CA 1.0%)): 8.42 log10 CFU/ml
